In test [1] the target is T1, Akt1 (Homo sapiens, UniProt P31749).
T1 construct: a middle T tag was added to the 5′ end of the full length Akt1 gene; middle T tag (EYMPME) (N); biotin tag (from pS2neo vector); made in house; host or cells: Drosophila S2 cells
Description: Akt kinase assay (HTRF, GSK-derived biotinylated peptide substrate). The test is classed as biochemical. As to conditions: activated Akt1, HTRF, 120 minute preincubation; read-out: IC50 against Akt1. The protocol:
(§1) Activated Akt isoforms were assayed utilizing a GSK-derived biotinylated peptide substrate. The extent of peptide phosphorylation was determined by Homogeneous Time Resolved Fluorescence (HTRF) using a europium-coupled monoclonal antibody specific for the phosphopeptide in combination with a streptavidin-linked allophycocyanin (SA-APC) fluorophore which will bind to the biotin moiety on the peptide. When the europium and APC are in proximity (i.e. bound to the same phosphopeptide molecule), a non-radiative energy transfer takes place from the […] to the APC, followed by emission of light from APC at 665 nm.
(§2) Materials required for the assay: • A. 100 nM activated Akt1 or 225 nM activated Akt2 • B. 10×R for AKT assay buffer (500 mM Hepes pH 7.5, 1% PEG m.w. 15000-20000, 1 mM EDTA, 1 mM EGTA, 1% BSA, 20 mM β glycerol phosphate) • C. 1 M KCl • D. 50% glycerol • E. 250 mM MgCl2 • F. 50 mM ATP pH 7.0 • G. 0.2 M DTT • H. 1 mM GSK3α biotinylated peptide (SynPep biotin-[…]-COOH) • I. Stop Buffer: 40 mM EDTA (pH8.4) • J. 8.5 uM SA-APC (PerkinElmer #CR130-100, lot No. N01001K-AAG16) • K. 4.9 uM Eu-W 1024 labeled phos-GSK3 monoclonal antibody (PerkinElmer #CUSM63178) • L. Detection Reagent: 15 mM Tris-HCl ([…]), 0.1% Tween20, 250 nM SA-APC (PerkinElmer #CR130-100, lot No. N01001K-AAG16), 0.735 nM Eu-W1024 labeled phos-GSK3 monoclonal antibody (PerkinElmer #CUSM63178) The reaction was assembled using the following protocol: • A. Add 0.5 uL inhibitor to test wells or 0.5 uL DMSO to no drug control wells. • B. Prepare Enzyme diluent: 18000 uL 10×R for AKT assay buffer, 9600 uL 250 mM MgCl2, 12000 uL 1 M KCl, 18000 uL 50% Glycerol, 900 uL 0.2 M DTT, 121500 uL MilliQ water. • C. Prepare Enzyme mixture (E-Mix): To […] Enzyme diluent, added 4.3 uL of a 100 nM activated AKT1, 1.9 uL of a 225 nM stock of activated Akt2 so concentration AKT1 and Akt2 were 6 pM. • D. 10 uL of Stop Buffer was added manually to wells acting as Background control wells. Initiate preincubation reactions by adding 15 uL of E-Mix using Multidrop 384. Spin down assay plates after the addition of E-Mix. • E. Prepare ATP/Peptide working solution (S-Mix): 10000 uL 10×R for AKT assay buffer, 5000 uL 50% glycerol, 250 uL 0.2M DTT, 600 uL 50 mM ATP, 100 uL 1 mM GSK3 peptide, 34050 uL MilliQ water. • F. To wells where preincubation is being conducted, after the 120 minute preincubation, initiate kinase reactions by adding 5 uL S-Mix using FRD. […] Let kinase assays run for 60 minutes at 25° C. • G. Stop kinase reactions by adding 10 uL Stop Buffer, using Multidrop 384, to wells other than background wells. • H. 10 uL of Detection Reagent was added using FRD and stopped assays were stored at room temperature for more than 2 hours. • I. The plates were read on PHERAstar.

The target of test [2] is T2, Akt2 (Homo sapiens, UniProt P31751).
T2 construct: a middle T tag was added to the 5′ end of the full length Akt2 using the PCR primer; middle T tag (EYMPME) (N); biotin tag (from pS2neo vector); made in house; host or cells: Drosophila S2 cells
Described as above. The test is classed as biochemical. Particulars: activated Akt2, HTRF, 120 minute preincubation; read-out: IC50 against Akt2. The protocol:
as §1, §2
For orientation: In TR-FRET formats the signal depends on donor and acceptor labels being close together.

T1 sequence (P31749 whole entry): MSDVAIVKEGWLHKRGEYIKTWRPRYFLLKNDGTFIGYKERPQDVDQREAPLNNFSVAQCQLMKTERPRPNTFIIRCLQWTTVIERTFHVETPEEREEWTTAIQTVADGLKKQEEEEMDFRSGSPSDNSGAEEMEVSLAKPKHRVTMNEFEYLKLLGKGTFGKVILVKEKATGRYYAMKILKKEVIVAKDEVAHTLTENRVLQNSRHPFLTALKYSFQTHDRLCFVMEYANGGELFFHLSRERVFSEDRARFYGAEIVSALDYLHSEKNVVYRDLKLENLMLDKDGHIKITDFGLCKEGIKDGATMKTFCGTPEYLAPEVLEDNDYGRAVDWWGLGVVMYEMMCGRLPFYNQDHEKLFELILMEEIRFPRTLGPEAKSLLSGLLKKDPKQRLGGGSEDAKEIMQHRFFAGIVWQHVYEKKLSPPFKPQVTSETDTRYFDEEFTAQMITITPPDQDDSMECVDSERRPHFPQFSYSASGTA
T2 sequence (P31751 whole entry): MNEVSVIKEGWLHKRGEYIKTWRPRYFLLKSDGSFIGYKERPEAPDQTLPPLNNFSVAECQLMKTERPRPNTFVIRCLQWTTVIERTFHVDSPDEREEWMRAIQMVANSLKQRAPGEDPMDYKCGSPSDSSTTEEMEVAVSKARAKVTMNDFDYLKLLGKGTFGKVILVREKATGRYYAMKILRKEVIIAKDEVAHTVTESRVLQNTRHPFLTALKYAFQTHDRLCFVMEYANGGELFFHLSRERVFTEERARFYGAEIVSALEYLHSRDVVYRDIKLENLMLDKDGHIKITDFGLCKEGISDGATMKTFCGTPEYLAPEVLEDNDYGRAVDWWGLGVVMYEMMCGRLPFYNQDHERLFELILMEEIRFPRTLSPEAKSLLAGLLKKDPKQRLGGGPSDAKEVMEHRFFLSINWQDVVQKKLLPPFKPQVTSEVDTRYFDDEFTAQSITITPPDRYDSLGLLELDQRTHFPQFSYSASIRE

Usually IC50 stands for the concentration at which inhibition is half-maximal. Regarding `COc1ccc(-c2nc(-c3ccc([C@]4(N)C[C@](C)(O)C4)cc3)c(-c3ccccc3)s2)cn1` [Compound 2-1, (1R,3R)-3-amino-3-(4-(2-(6-methoxypyridin-3-yl)-5-phenylthiazol-4-yl)phenyl)-1-methylcyclobutanol], the half-maximal inhibitory concentration (IC50) in test [1] was 91 nM; in test [2], 26 nM.
Take `COc1cncc(-c2nc(-c3ccc([C@]4(N)C[C@](C)(O)C4)cc3)c(-c3ccccc3)s2)c1` [Compound 3-1, (1R,3R)-3-amino-3-(4-(2-(5-methoxypyridin-3-yl)-5-phenylthiazol-4-yl)phenyl)-1-methylcyclobutanol]: the IC50 in test [1] came out at 40 nM; in test [2], 25 nM.

For the origin of these results see patent US20120028918A1, “PHARMACEUTICAL COMPOSITIONS AND METHODS OF MAKING SAME” (GLAXO WELLCOME MANUFACTURING PTE LTD., priority 2010, published 2012).
